Assay results: US20240041877A1, “DOSAGE REGIME AND METHOD FOR TREATING PULMONARY ARTERIAL HYPERTENSION” (Altavant Sciences GmbH, priority 2019, published 2024)

Experiment: Study KAR5585-101 Part 1 (SAD): plasma pharmacokinetics after a single oral dose of KAR5585, fasting and fed (incl. dose proportionality and food effect)
Conditions: for AUC / AUC(0-inf) / concentration at 12 h / Cmax / Vd/F / half-life / Tmax: human, plasma, po; for AUC: AUC0-tau; for AUC(0-inf): AUC0-∞; for Vd/F: Vz/F
[1] = 400 mg, 400 mg KAR5585 single oral, fasted, Cohort 3A, Mean
[2] = 400 mg, 400 mg KAR5585 single oral, fed, Cohort 3B, Geo. Mean
[3] = 400 mg, 400 mg KAR5585 single oral, fed, Cohort 3B, Mean
[4] = 400 mg, Geometric Mean, Cohort 3A (Fasting), 400 mg KAR5585 single oral dose, fasting
[5] = 400 mg, Geometric Mean, Cohort 3B (Fed), 400 mg KAR5585 single oral dose, fed
[6] = 400 mg, 400 mg KAR5585 single oral, fasted, Cohort 3A, Geo. Mean
[7] = 700 mg, 700 mg KAR5585 single oral, fasted, Cohort 4, Geo. Mean
[8] = 700 mg, 700 mg KAR5585 single oral, fasted, Cohort 4, Mean
[9] = 1200 mg, 1200 mg KAR5585 single oral, fasted, Cohort 5, Geo. Mean
[10] = 1200 mg, 1200 mg KAR5585 single oral, fasted, Cohort 5, Mean
[11] = 2000 mg, 2000 mg KAR5585 single oral, fasted, Cohort 6, Geo. Mean
[12] = 2000 mg, 2000 mg KAR5585 single oral, fasted, Cohort 6, Mean

Compound `CCOC(=O)[C@@H]1CC2(CCN(c3cc(O[C@H](c4ccc(Cl)cc4-c4ccccc4)C(F)(F)F)nc(N)n3)CC2)CN1` [KAR5585, (S)-ethyl 8-(2-amino-6-((R)-1-(5-chloro-[1,1′-biphenyl]-2-yl)-2,2,2-trifluoroethoxy)pyrimidin-4-yl)-2,8-diazaspiro[4.5]decane-3-carboxylate] has an AUC [1] of 219 ng·h/mL, an AUC [2] of 854 ng·h/mL and an AUC [3] of 868 ng·h/mL. For the same compound, the AUC [4] was 176 ng·h/mL, the AUC [5] was 854 ng·h/mL and the AUC(0-inf) [6] was 288 ng·h/mL. The AUC(0-inf) [1] was 302 ng·h/mL, the AUC(0-inf) [2] was 903 ng·h/mL and the AUC(0-inf) [3] was 915 ng·h/mL. For the same compound, the concentration at 12 h (400 mg, C12, 400 mg KAR5585 single oral, fasted, Cohort 3A, Geo. Mean) was 7.4 ng/mL, the concentration at 12 h (400 mg, C12, 400 mg KAR5585 single oral, fasted, Cohort 3A, Mean) was 7.45 ng/mL and the concentration at 12 h (400 mg, C12, 400 mg KAR5585 single oral, fed, Cohort 3B, Geo. Mean) was 19.7 ng/mL. The concentration at 12 h (400 mg, C12, 400 mg KAR5585 single oral, fed, Cohort 3B, Mean) was 21 ng/mL, the Cmax [6] was 42 ng/mL and the Cmax [1] was 52.8 ng/mL. For the same compound, the Cmax [2] was 165 ng/mL, the Cmax [3] was 169 ng/mL and the Cmax [4] was 42 ng/mL. For the same compound, the Cmax [5] was 165 ng/mL, the Vd/F [6] was 8100 L and the Vd/F [1] was 8330 L. The Vd/F [2] was 2730 L, the Vd/F [3] was 2780 L and the half-life (400 mg, t1 (t½, apparent terminal half-life), 400 mg KAR5585 single oral, fasted, Cohort 3A, Geo. Mean) was 4.04 h. It also gave a half-life (400 mg, t1 (t½, apparent terminal half-life), 400 mg KAR5585 single oral, fasted, Cohort 3A, Mean) of 4.08 h, a half-life (400 mg, t1 (t½, apparent terminal half-life), 400 mg KAR5585 single oral, fed, Cohort 3B, Geo. Mean) of 4.26 h and a half-life (400 mg, t1 (t½, apparent terminal half-life), 400 mg KAR5585 single oral, fed, Cohort 3B, Mean) of 4.45 h. For the same compound, the Tmax (400 mg, tmax, 400 mg KAR5585 single oral, fasted, Cohort 3A, Median) was 2.07 h, the Tmax (400 mg, tmax, 400 mg KAR5585 single oral, fed, Cohort 3B, Median) was 3 h and the AUC [7] was 362 ng·h/mL. It also gave an AUC [8] of 386 ng·h/mL, an AUC(0-inf) [7] of 412 ng·h/mL and an AUC(0-inf) [8] of 436 ng·h/mL. The concentration at 12 h (700 mg, C12, 700 mg KAR5585 single oral, fasted, Cohort 4, Geo. Mean) was 9.84 ng/mL, the concentration at 12 h (700 mg, C12, 700 mg KAR5585 single oral, fasted, Cohort 4, Mean) was 10.7 ng/mL and the Cmax [7] was 95.2 ng/mL. The Cmax [8] was 99.4 ng/mL, the Vd/F [7] was 8390 L and the Vd/F [8] was 9120 L. It also gave a half-life (700 mg, t1 (t½, apparent terminal half-life), 700 mg KAR5585 single oral, fasted, Cohort 4, Geo. Mean) of 3.42 h, a half-life (700 mg, t1 (t½, apparent terminal half-life), 700 mg KAR5585 single oral, fasted, Cohort 4, Mean) of 3.46 h and a Tmax (700 mg, tmax, 700 mg KAR5585 single oral, fasted, Cohort 4, Median) of 1.75 h. For the same compound, the AUC [9] was 296 ng·h/mL, the AUC [10] was 364 ng·h/mL and the AUC(0-inf) [9] was 406 ng·h/mL. It also gave an AUC(0-inf) [10] of 462 ng·h/mL, a concentration at 12 h (1200 mg, C12, 1200 mg KAR5585 single oral, fasted, Cohort 5, Geo. Mean) of 11 ng/mL and a concentration at 12 h (1200 mg, C12, 1200 mg KAR5585 single oral, fasted, Cohort 5, Mean) of 11.8 ng/mL. The Cmax [9] was 68.1 ng/mL, the Cmax [10] was 83 ng/mL and the Vd/F [9] was 14500 L. It also gave a Vd/F [10] of 16900 L, a half-life (1200 mg, t1 (t½, apparent terminal half-life), 1200 mg KAR5585 single oral, fasted, Cohort 5, Geo. Mean) of 3.4 h and a half-life (1200 mg, t1 (t½, apparent terminal half-life), 1200 mg KAR5585 single oral, fasted, Cohort 5, Mean) of 3.58 h. The Tmax (1200 mg, tmax, 1200 mg KAR5585 single oral, fasted, Cohort 5, Median) was 2 h, the AUC [11] was 638 ng·h/mL and the AUC [12] was 773 ng·h/mL. The AUC(0-inf) [11] was 667 ng·h/mL, the AUC(0-inf) [12] was 778 ng·h/mL and the concentration at 12 h (2000 mg, C12, 2000 mg KAR5585 single oral, fasted, Cohort 6, Geo. Mean) was 26.2 ng/mL. It also gave a concentration at 12 h (2000 mg, C12, 2000 mg KAR5585 single oral, fasted, Cohort 6, Mean) of 37.4 ng/mL, a Cmax [11] of 95.1 ng/mL and a Cmax [12] of 104 ng/mL. For the same compound, the Vd/F [11] was 20600 L, the Vd/F [12] was 25100 L and the half-life (2000 mg, t1 (t½, apparent terminal half-life), 2000 mg KAR5585 single oral, fasted, Cohort 6, Geo. Mean) was 4.76 h. It also gave a half-life (2000 mg, t1 (t½, apparent terminal half-life), 2000 mg KAR5585 single oral, fasted, Cohort 6, Mean) of 4.84 h, a Tmax (2000 mg, tmax, 2000 mg KAR5585 single oral, fasted, Cohort 6, Median) of 2 h and a Vd/F (range across dose levels, single oral KAR5585) of 5680 to 25100 L. The half-life (mean apparent elimination half-life, range across dose levels, single oral KAR5585 100-2000 mg) was 1.89 to 4.84 h, the Tmax (median tmax, range across cohorts, single oral 100-2000 mg KAR5585, fasting cohorts) was 1.5 to 3 h and the “time concentrations remained above the LLOQ” value (single 100 mg KAR5585, fasting) was “up to 4 hours”. For the same compound, the “time concentrations remained above the LLOQ” value (single 200 mg KAR5585, fasting) was “up to 12 hours”, the “time concentrations remained above the LLOQ” value (single 700 mg KAR5585, fasting) was “up to 12 hours” and the “time concentrations remained above the LLOQ” value (single 1200 mg KAR5585, fasting) was “up to 12 hours”. The “dose proportionality of AUC0-inf and Cmax (power model, 95% CI of slope)” value (single dose range 100 to 2000 mg KAR5585, fasting) was “dose proportionality was not concluded”.
